In PMC5358917, “Mechanism of H2S Oxidation by the Dissimilatory Perchlorate-Reducing Microorganism Azospira suillum PS” (mBio, 2017):

Legend:
[1] = molecular target: T1, PcrAB (perchlorate reductase) (Azospira oryzae, UniProt G8QM55); assay: steady-state turnover, Cline assay of sulfide; assay type: biochemical; settings: H2S as electron donor; 0.2 uM PcrAB; anaerobic
T1 construct: gene Dsui_0149; native PcrAB complex purified anoxically from wild-type PS cells, three-column protocol; periplasmic enzyme; with Perchlorate reductase subunit beta
T1 sequence (G8QM55 29-927): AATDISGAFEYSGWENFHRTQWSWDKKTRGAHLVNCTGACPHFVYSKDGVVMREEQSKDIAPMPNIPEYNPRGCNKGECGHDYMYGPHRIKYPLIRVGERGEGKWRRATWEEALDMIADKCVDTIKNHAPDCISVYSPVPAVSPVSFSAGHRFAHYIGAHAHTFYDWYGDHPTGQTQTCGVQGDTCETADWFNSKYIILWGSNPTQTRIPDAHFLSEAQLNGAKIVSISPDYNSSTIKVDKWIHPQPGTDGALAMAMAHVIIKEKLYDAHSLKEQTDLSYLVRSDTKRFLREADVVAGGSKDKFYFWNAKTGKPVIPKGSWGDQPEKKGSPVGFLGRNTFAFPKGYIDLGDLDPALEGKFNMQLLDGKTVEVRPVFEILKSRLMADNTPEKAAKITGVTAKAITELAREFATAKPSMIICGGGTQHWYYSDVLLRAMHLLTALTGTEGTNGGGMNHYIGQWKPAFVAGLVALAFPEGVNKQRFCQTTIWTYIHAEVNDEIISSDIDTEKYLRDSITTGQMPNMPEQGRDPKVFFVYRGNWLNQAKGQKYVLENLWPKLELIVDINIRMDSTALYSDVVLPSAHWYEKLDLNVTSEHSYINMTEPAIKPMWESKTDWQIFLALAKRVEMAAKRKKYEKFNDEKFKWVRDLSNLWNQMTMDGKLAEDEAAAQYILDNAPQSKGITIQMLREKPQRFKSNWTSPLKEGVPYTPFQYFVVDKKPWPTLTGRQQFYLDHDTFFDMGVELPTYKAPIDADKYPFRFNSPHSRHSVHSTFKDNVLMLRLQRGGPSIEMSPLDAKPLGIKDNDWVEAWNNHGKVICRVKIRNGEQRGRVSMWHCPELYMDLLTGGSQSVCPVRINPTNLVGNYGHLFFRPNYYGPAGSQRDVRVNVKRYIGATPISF
T1 sequence (G8QM54 1-333 partner): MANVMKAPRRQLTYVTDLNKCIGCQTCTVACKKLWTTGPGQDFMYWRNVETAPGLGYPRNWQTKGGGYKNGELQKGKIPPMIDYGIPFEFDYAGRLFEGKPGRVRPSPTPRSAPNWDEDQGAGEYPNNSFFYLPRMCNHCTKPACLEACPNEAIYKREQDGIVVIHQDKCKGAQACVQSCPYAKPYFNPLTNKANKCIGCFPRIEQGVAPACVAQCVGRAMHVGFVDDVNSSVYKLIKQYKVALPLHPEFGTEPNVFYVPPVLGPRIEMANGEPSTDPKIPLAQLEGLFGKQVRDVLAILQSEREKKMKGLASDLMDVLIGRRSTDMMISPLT

[2] = molecular target: T1, PcrAB (perchlorate reductase); assay: steady-state turnover, ion chromatography of perchlorate and Cline assay of sulfide; assay type: biochemical; settings: H2S as electron donor; 0.2 uM PcrAB; anaerobic

Compound	steady-state turnover, Cline assay of sulfide [1]	steady-state turnover, ion chromatography of perchlorate and Cline assay of sulf [2]
O=[N+]([O-])O [nitrate]	purified PcrAB also mediated H2S oxidation coupled to nitrate reduction	–
[O-][Cl+3]([O-])([O-])O [perchlorate]	–	Our results indicated that PcrAB independently mediated PSOX
